Source: US11512074B2, “Substituted diamino heterocyclic carboxamide compound and a composition containing the compound and use thereof” (Shenzhen TargetRx, Inc., priority 2018, dated 2022)

Columns and labels:
MOLM-13 cells = assay: Inhibition of cell MOLM-13 proliferation (CTG assay); assay type: cell-based; conditions: Homo sapiens, 72 hours, read-out: MOLM-1 IC50
From the text: Cell MV-4-11 (ATCC, Cat. No. CRL-9591), cell MOLM-13 (COBIOER, Cat. No. CBP60678), RPMI-1640 (GIBCO, Cat. No. A10491-01), penicillin-streptomycin (GIBCO, Cat. No. 15140-122), fetal bovine serum (GIBCO, Cat. No. 10099-141), phosphate buffer solution PBS (GIBCO, Cat. No. 10010-031), DMSO (Sigma, Cat. No. D8418-1L), CelltiterGlo Assay kit (CTG) (Promega, Cat. No. G7573), 96-well plate with transparent flat bottom and black walls (PerkinElmer, Cat. No. 6005680-50), plate shaker (QILINBEIER, Cat. No. B-9002), centrifuge (Eppendorf, Cat. No. 5804R), CO2 incubator (Thermo Scientific, Cat. No. 371), microscope (OLYMPUS Cat. No. CKX41), multi-plate reader (PerkinElmer, Cat. No. EnVision).
(2) Preparation of Cell Suspension • a) The medium was collected from the culture bottle and centrifuged at 1000 rpm for 5 min. • b) The supernatant was discarded, and the cells were resuspended in medium containing 10% fetal bovine serum, and counted to prepare a cell suspension (cell viability was greater than 90%). • c) The cell suspension was added into a 96-well plate, with […] in each well, namely 5000 MV-4-11 cells/well; 5000 MOLM-13 cells/well. • d) The cell plate was cultured overnight in a 37° C., 5% CO2 incubator.
Dilution of Compounds in DMSO: • a) MV-4-11 cells: The compounds were diluted with DMSO from 10 mM to 60 uM, and then subjected to a 3-fold serial gradient dilution in DMSO from 60 uM, resulting in 9 concentrations. • b) MOLM-13 cells: The compounds were diluted with DMSO from 10 mM to 200 uM, and then subjected to a 3-fold serial gradient dilution in DMSO from 200 uM, resulting in 9 concentrations. • c) Compound Taxol was diluted with DMSO from 10 mM to 200 uM, and then subjected to a 3-fold serial gradient dilution in DMSO from 200 uM, resulting in 9 concentrations.
(4) Treatment of Cells with Compounds (after the Overnight Incubation of the Cell Plate) • a) Each well was replenished with 99 μl of growth medium containing 10% FBS, and then 1 μl of the diluted compound was added to the well. The concentration of DMSO was 0.5%. • b) Concentrations of the tested compounds were: MV-4-11 cells: 300, 100, 33.3, 11.1, 3.7, 1.23, 0.41, 0.137, 0.046, 0 [nM]. • MOLM-13 cells: 1000, 333.3, 111.1, 37.04, 12.35, 4.1, 1.37, 0.46, 0.15, 0 [nM]. • c) Concentrations of control compound Taxol were: 1000, 333.3, 111.1, 37.04, 12.35, 4.12, 1.37, 0.46, 0.15, 0 [nM]. • d) The cell plate was placed in the incubator for 72 hours.
(5) CTG Assay • a) The test plate was placed at room temperature and equilibrated for 30 minutes, and 60 μl of the culture medium was discarded. • b) 60 μl of CTG reagent (CelltiterGlo kit) was added, and the plate was placed on a rapid plate shaker to shake for 2 min, and then let it stand at room temperature for 20 min. • c) Envision was used to read the values.
IC50 values were calculated using GraphPad Prism 6 software. The IC50 (half inhibitory concentration) values of the compounds were obtained by the following non-linear fitting formula. Y=Bottom+(Top−Bottom)/(1+10^((Log IC50−X)*HillSlope)) • X: Log value of the compound concentration • Y: Inhibition rate (% inhibition) % inhibition (inhibition rate)=100*(value of the High Control-value of the test compound well)/(value of the High Control-value of the Low Control)

Ba/F3 FLT3-ITD cells = assay: Inhibition of Ba/F3 FLT3-ITD cell proliferation (CTG); assay type: cell-based; conditions: 72 hours, read-out: BaF3 [FLT3-ITD] IC50
Description: Cell lines were cultured under the condition of 37° C., 5% CO2 and 95% humidity: cell line Ba/F3 parental (suspended, 3000 cells/well, medium was RPMI-1640+10% FBS+8 ng/ml IL-3), cell line Ba/F3 FLT3-ITD (suspended, 3000 cells/well, medium was RPMI-1640+10% FBS)
Reagents and materials: Fetal bovine serum (FBS, GBICO, Cat. No. 10099-141), CellTiter-Glo® Luminescent Cell Viability Assay (Promega, Cat. No. G7572), 96-well plate with transparent flat bottom and black walls (Corning®, Cat. No. 3603), control compound AC220 (Selleck, Cat. No. S1526).
Cell Culture and Inoculation: • 1. Cells in the logarithmic growth phase were harvested and counted using a platelet counter. The cell viability was determined by trypan blue exclusion method to ensure that the cell viability was greater than 90%; • 2. The cell concentration was adjusted and 90 μL of the cell suspension was added into a 96-well plate respectively; • 3. The cells in the 96-well plate were cultured overnight under the condition of 37° C., 5% CO2 and 95% humidity.
Drug Dilution and Dosing: • 1. The 10-fold drug solutions were prepared with a maximum concentration of 100 μM, which was diluted using a 3.16-fold serial gradient dilution, resulting in 9 concentrations. 10 μL of the drug solutions was added to each well of the 96-well plate inoculated with Ba/F3 parental cells; and each drug concentration was set in triplicate. • 2. The 10-fold drug solutions were prepared with a maximum concentration of 10 μM, which was diluted using a 3.16-fold serial gradient dilution, resulting in 9 concentrations. 10 μL of the drug solutions was added to each well of the 96-well plate inoculated with Ba/F3 FLT3-ITD cells; and each drug concentration was set in triplicate. • 3. The cells in the 96-well plate with drugs were cultured at 37° C., 5% CO2 and 95% humidity for 72 hours, and then CTG analysis was carried out.
Plate Reading at the End Point: • 1. CTG reagent was thawed and the cell plate was equilibrated to room temperature for 30 minutes; • 2. Equal volume of the CTG solution was added to each well; • 3. The cell plate was shaked on the orbital shaker for 5 minutes to lyse the cells; • 4. The cell plate was placed at room temperature for 20 minutes to stabilize the cold light signal; • 5. The cold light values were read.
GraphPad Prism 8.0 software was used to analyze the data, and the data was fitted using the non-linear S-curve regression to get a dose-effect curve, and IC50 values were calculated. Cell viability (%)=(Lum of test drug−Lum of medium control)/(Lum of cell control−Lum of medium control)×100%.

Row | SMILES | IC50 (MOLM-13 cells) | IC50 (Ba/F3 FLT3-ITD cells)
1 | [2H]C([2H])([2H])N1CCN(C2CCN(c3ccc(Nc4nc(NC5CCOCC5)c(CC)nc4C(N)=O)cc3OC)CC2)CC1 [Compound T-2, 6-ethyl-3-((3-methoxy-4-(4-(4-(methyl-d3)piperazin-1-yl)piperidin-1-yl)phenyl)amino)-5-((tetrahydro-2H-pyran-4-yl)amino)pyrazine-2-carboxamide] | 14.3 nM | 51.3 nM
2 | [2H]C([2H])([2H])Oc1cc(Nc2nc(NC3CCOCC3)c(CC)nc2C(N)=O)ccc1N1CCC(N2CCN(C([2H])([2H])[2H])CC2)CC1 [Compound T-3, 6-ethyl-3-((3-(methoxy-d3)-4-(4-(4-(methyl-d3)piperazin-1-yl)piperidin-1-yl)phenyl)amino)-5-((tetrahydro-2H-pyran-4-yl)amino)pyrazine-2-carboxamide] | 14.2 nM | 89 nM
3 | [2H]C([2H])([2H])Oc1cc(Nc2nc(NC3CCOCC3)c(CC)nc2C(N)=O)ccc1N1CCC(N2CCN(C)CC2)CC1 [Compound T-1, 6-ethyl-3-((3-(methoxy-d3)-4-(4-(4-methylpiperazin-1-yl)piperidin-1-yl)phenyl)amino)-5-((tetrahydro-2H-pyran-4-yl)amino)pyrazine-2-carboxamide] | 15 nM | 46.5 nM
4 | CCc1nc(C(N)=O)c(Nc2ccc(N3CCC(N4CCN(C)CC4)CC3)c(OC)c2)nc1NC1CCOCC1 [Gilteritinib, 6-ethyl-3-((3-methoxy-4-(4-(4-methylpiperazin-1-yl)piperidin-1-yl)phenyl)amino)-5-((tetrahydro-2H-pyran-4-yl)amino)pyrazine-2-carboxamide, reference compound] | 14.3 nM | 
5 | [2H]C1([2H])N(C)C([2H])([2H])C([2H])([2H])N(C2CCN(c3ccc(Nc4nc(NC5CCOCC5)c(CC)nc4C(N)=O)cc3OC)CC2)C1([2H])[2H] [Compound T-8, 6-ethyl-3-((3-methoxy-4-(4-(4-methylpiperazin-1-yl-2,2,3,3,5,5,6,6-d8)piperidin-1-yl)phenyl)amino)-5-((tetrahydro-2H-pyran-4-yl)amino)pyrazine-2-carboxamide] |  | 85 nM
6 | [2H]C([2H])([2H])N1CCN(C2CCN(c3ccc(Nc4nc(NC5CCOCC5)c(C([2H])([2H])C([2H])([2H])[2H])nc4C(N)=O)cc3OC)CC2)CC1 [Compound T-5, 6-(ethyl-d5)-3-((3-methoxy-4-(4-(4-(methyl-d3)piperazin-1-yl)piperidin-1-yl)phenyl)amino)-5-((tetrahydro-2H-pyran-4-yl)amino)pyrazine-2-carboxamide] | 12 nM | 94.4 nM
7 | [2H]C([2H])([2H])N1C([2H])([2H])C([2H])([2H])N(C2CCN(c3ccc(Nc4nc(NC5CCOCC5)c(CC)nc4C(N)=O)cc3OC)CC2)C([2H])([2H])C1([2H])[2H] [Compound T-9, 6-ethyl-3-((3-methoxy-4-(4-(4-(methyl-d3)piperazin-1-yl-2,2,3,3,5,5,6,6-d8)piperidin-1-yl)phenyl)amino)-5-((tetrahydro-2H-pyran-4-yl)amino)pyrazine-2-carboxamide] | 14.5 nM | 72 nM
